SMILES strings stand for the structures. The source made the active and inactive calls.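 Rule for the calls: active = Compounds that kill half the cells at a concentration of 5 micromolar or below, from the fitted or estimated CC50; inactive = CC50 above 5 micromolar.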

This assay concerns Jurkat E6.1 viability, ATP luminescence, 48 h. Briefly: viability loss in Jurkat T cells – cell-based, ATP luminescence, 48 h, 60K MLSMR, cytotoxicity control, dose response (AID 464).
In the case of `Cc1noc(C)c1CSc1nc2ccccc2c(=O)n1-c1ccc(F)cc1F`, the CC50 (as a rule, the concentration that lowers cell viability or growth by half) was > 4.4 µM (inactive). In the case of `CCOC(=O)c1[nH]c(C)c(C(=O)Nc2cc(Cl)ccc2C)c1C` it was 0.248 µM; in that of `O=C(NCc1cccs1)c1nc2c(nnn2Cc2ccccc2Cl)c(=O)[nH]1`, 14.8 µM (inactive). In the case of `CCOC(=O)c1oc2ccc(S(=O)(=O)Nc3ccc4c(c3)n(C)c(=O)n4C)cc2c1C` it was 11.3 µM (inactive); in that of `O=C(Nc1nc(-c2ccccc2)cs1)C1CCCN(S(=O)(=O)c2ccccc2)C1` (stereo not given), 20.9 µM (inactive). The figure for `CCOc1cc(N2CCOCC2)c(OCC)cc1NS(=O)(=O)c1ccc(Cl)s1` is 1.84 µM. In the case of `Cn1nnnc1SCC(=O)Nc1ccc(Oc2ccc(Cl)cc2)cc1`, the CC50 was 36.8 µM (inactive). In the case of `CCOc1cc(N2CCOCC2)c(OCC)cc1NC(=O)COc1cccc2cccnc12` it was 9.13 µM (inactive); in that of `COc1ccc(C2NCc3ccc4c(c3-n3cccc32)OCO4)cc1O` (stereo not given), 0.999 µM. In the case of `COc1ccccc1N1CCN(c2nc(C)nc3c2oc2ccccc23)CC1` it was 1.04 µM. In the case of `CC1=C(C(=O)OCc2ccc3c(c2)OCO3)C(c2ccc(F)cc2)NC(=O)N1` (stereo not given) it was 3.57 µM.

`CCCn1c(NC(=O)C2CCN(S(=O)(=O)c3cccs3)CC2)nc2ccccc21`: the CC50 was > 40 µM (inactive).

Take `c1ccc2c(c1)[nH]c1c(N3CCCC3)ncnc12`: the CC50 was 13.3 µM (inactive).

For the compound `CCC(=NC(C)c1ccccc1)c1c(O)n(C)c(=O)n(C)c1=O` (stereo not given), the CC50 is 11.3 µM (inactive).

Take `Clc1ccc(OCCN2CCN(c3ncnc4sccc34)CC2)cc1`: the CC50 is 0.938 µM. The figure for `CCOC(=O)c1[nH]c(C)c(C(=O)Nc2cc(OC)ccc2OC)c1C` is 0.458 µM; for `COc1ccccc1C1C=C(c2ccccc2)Nc2nnnn21` (stereo not given) it is > 13 µM (inactive). `CCN(CC)c1nc(C#N)cc(-c2ccc(OC)cc2)n1`: the CC50 was 5.36 µM (inactive). `Cc1cc2c(N=O)c(NO)ccc2[nH]1`: the cytotoxic concentration (CC50) is 1.97 µM. In the case of `COc1cc(CN2CCN(c3cccc(Cl)c3)CC2)cc(OC)c1OC`, the CC50 is 4.36 µM. The figure for `COc1ccc(-c2n[nH]c(C)c2-c2ccc(OC)c(OC)c2)c(O)c1` is > 4.4 µM (inactive); for `CCSc1nnc(NC(=O)c2ccccn2)s1` it is 8.3 µM (inactive). Take `CCn1c(C)nc2cc(-c3nc4n(n3)Cc3ccccc3-4)ccc21`: the CC50 is 2.57 µM. In the case of `Cc1nnc(NC(=O)CSc2nccn2-c2cccc(C)c2C)s1` it was 2.04 µM; in that of `N#CC1=C2SCC(O)(c3ccccc3)N2C(=O)CC1c1cccs1` (stereo not given), 0.361 µM; in that of `Cc1ccccc1OCC(=O)Nc1ccc(N2CCN(C(=O)C(C)C)CC2)c(Cl)c1`, > 40 µM (inactive).

On to `Cn1c(C(=O)NCCc2c[nH]c3ccccc23)cc2sccc21`, for which the CC50 is > 40 µM (inactive).

Regarding `CCCCOC(=O)c1[nH]c2c(c1C)C(=O)CC(c1cc(OC)c(OC)c(OC)c1)C2` (stereo not given), the CC50 is 18.7 µM (inactive).

For `CCCCC(=O)Nc1ccc(C(=O)NCCCn2ccnc2)cc1`, the CC50 is > 4.4 µM (inactive).

Consider `Cc1sc(NC(=O)c2ccco2)nc1-c1ccc2c(c1)CC(C)N2C(=O)C1CC1` (stereo not given), for which the CC50 was 16.3 µM (inactive). The figure for `COc1ccccc1NC(=O)N(Cc1ccco1)Cc1cc2ccc(C)c(C)c2[nH]c1=O` is 1.81 µM. In the case of `CCOC(=O)c1[nH]c(C)c(C(=O)Nc2ccc(C)c(F)c2)c1C` it was 7.19 µM (inactive). In the case of `C(=C\c1ccccc1)/CSc1nnc(-c2ccccn2)n1Cc1ccco1` it was 2.28 µM. In the case of `Cc1nc2ccc(S(=O)(=O)Nc3ccccc3C)cc2s1`, the CC50 was 8.95 µM (inactive). The figure for `COc1ccc2nc(NC(=O)c3cccc(OCc4c(C)noc4C)c3)sc2c1` is 1.6 µM; for `Nc1nnnn1/N=C/C(Br)=C/c1ccccc1` it is > 13 µM (inactive); for `COc1ccc(-c2nnc(SCC(=O)Nc3ncc(C)s3)n2-c2ccccc2)cc1OC` it is 9.26 µM (inactive).

Turning to `Cc1cc(NC(c2cccnc2)c2ccc3cccnc3c2O)no1` (stereo not given), the CC50 is 3.25 µM. In the case of `COc1ccc(Cn2c(=O)oc3ccc(C)cc32)cc1OC` it was 13.1 µM (inactive); in that of `CCOC(=O)C(C)Oc1cccc2c(=O)n(CC(=O)NCc3ccco3)ccc12` (stereo not given), 1.1 µM; in that of `Cc1ccc(C)c(N2CCN(C(=O)c3ccc(CS(=O)(=O)c4ccccc4C)o3)CC2)c1`, 14.2 µM (inactive).

Take `COc1ccc(C2=NOC(C(=O)NCc3ccccc3)C2)cc1` (stereo not given): the half-maximal cytotoxic concentration (CC50) was 3.26 µM. The figure for `CCCC(=O)Nc1nc2ccc(S(=O)(=O)N3CCCCC3)cc2s1` is 2.82 µM. In the case of `Nc1nonc1-c1nc2ccccc2n1Cc1ccccc1` it was 6.41 µM (inactive). In the case of `O=C(c1ccco1)N1CCN(C(=O)N2c3ccccc3Sc3ccccc32)CC1`, the CC50 is 0.099 µM. The figure for `O=c1cc(-c2ccccc2)[nH]c2ccccc12` is 0.373 µM; for `O=S1(=O)C=C(Sc2nnc(-c3ccccc3)o2)c2ccccc21` it is > 13 µM (inactive). In the case of `CCC1CCCCN1S(=O)(=O)c1ccc(C(=O)Nc2nnc(-c3cccs3)o2)cc1` (stereo not given) it was 11.6 µM (inactive). As to `c1ccc(CNc2ncnc3ccccc23)cc1`, the CC50 is 4.68 µM. In the case of `Cc1cc(C)n(-c2nnc3n2N=C(c2c[nH]c4ccccc24)CS3)n1` it was > 4.4 µM (inactive). Take `CCOc1ccc(-c2cc(C(=O)O)c3ccccc3n2)c(OCC)c1`: the CC50 is > 40 µM (inactive). `Cc1ccc2[nH]c3c(NCc4ccco4)ncnc3c2c1`: the CC50 is 18.7 µM (inactive).

With `CC1(C)CC(=O)C2=C(C1)OC1=C(C(=O)CC(C)(C)C1)C2c1ccc(O)cc1O`, the CC50 is 2.39 µM.

On to `Oc1c(CN2CCOCC2)cc(COCc2ccccc2)c2cccnc12`, for which the cytotoxic concentration (CC50) is 2.65 µM. As to `Cn1nc(CC(=O)Nc2ccc(N3CCN(C(=O)OC(C)(C)C)CC3)cc2)c2ccccc2c1=O`, the CC50 is > 13 µM (inactive). The figure for `O=C(Nc1nnc(-c2cccs2)o1)c1cccc(C(F)(F)F)c1` is 25.7 µM (inactive); for `O=S1(=O)C=C(Sc2nc3ccccc3s2)c2ccccc21` it is 0.647 µM; for `Cc1nn(C)c(C)c1CNC(=O)c1nn2c(c1Cl)NC(c1cccs1)CC2C(F)(F)F` (stereo not given) it is 15.2 µM (inactive).

Regarding `COc1ccc(C2NC(=O)NC3=C2CCc2ccccc23)cc1` (stereo not given), the CC50 was 4.81 µM. As for `CCOC(=O)N1CCN(c2c(F)cc3[nH]c(=S)[nH]c3c2Br)CC1`, the CC50 is > 4.4 µM (inactive). For the compound `CN1/C(=C/C(=O)c2nc(S(C)(=O)=O)ncc2Cl)C(C)(C)c2ccccc21`, the CC50 is > 13 µM (inactive). In the case of `CCCCOc1ncnc2c1[nH]c1ccc(F)cc12` it was > 40 µM (inactive); in that of `COC(=O)C1=C(C)N(c2ccc(Cl)c(Cl)c2)C(=O)C1`, 5.37 µM (inactive); in that of `COc1ccc(C(=O)CSc2nnc(Cn3cnc4ccccc43)o2)cc1`, 2.6 µM. As to `COc1cc(N=Cc2c(O)[nH]c3ccccc23)cc(OC)c1OC`, the CC50 was 1.58 µM. In the case of `CCOc1ccc2ccccc2c1C(=O)N1CCN(c2ccccc2)CC1` it was 3.75 µM; in that of `CCOc1ccc(C2=Nn3c(nnc3-c3ccc(OC)cc3)SC2)cc1`, 0.841 µM. The figure for `COc1cc(C)c(Cl)cc1S(=O)(=O)NCc1ccncc1` is 3.1 µM; for `CCc1ccc2oc(-c3cc(N)cc(C)c3O)nc2c1` it is > 13 µM (inactive); for `O=C(Nc1nc(-c2ccc(S(=O)(=O)N3CCCCCC3)cc2)cs1)c1cccs1` it is > 40 µM (inactive). In the case of `Cc1ccc(Nc2cc(C)nn2-c2nc(C)cc(=O)[nH]2)cc1` it was 1.31 µM. On to `Cc1cc(NC(=O)CSc2nnc3c(C)cc4c(C)ccc(C)c4n23)no1`, for which the 50% cytotoxic concentration (CC50) is 3.83 µM. In the case of `COc1ccccc1-c1cc(C(=O)Nc2cccnc2)no1` it was 0.146 µM.

Consider `C/C(N)=C(/C#N)C(=O)CSc1nnnn1-c1ccc(C)cc1C`, for which the CC50 was > 40 µM (inactive). In the case of `CCCN1CCN(c2ncnc3c2nnn3Cc2ccccc2)CC1` it was 9.22 µM (inactive); in that of `Cn1c(=O)oc2cc(S(=O)(=O)N3CCCc4ccccc43)ccc21`, 0.173 µM; in that of `CC(C)OCCCNc1ncnc2c1[nH]c1ccccc12`, 4.91 µM.

Regarding `O=C(Nc1cc(N2CCOCC2)ncn1)NC1(C(F)(F)F)Oc2ccc(Cl)cc2O1` (stereo not given), the CC50 was 4.81 µM.

For `COc1ccccc1-c1cc(C(=O)Nc2cc(C)nn2-c2ccccc2)no1`, the CC50 was 6.14 µM (inactive). In the case of `CCOc1ccccc1C1CC(=O)Nc2cc3c(cc21)OCCO3` (stereo not given) it was 0.625 µM. In the case of `Cc1c(C(=O)N2CCOCC2)[nH]c2c1C(=O)CC(c1ccccc1Cl)C2` (stereo not given) it was 1.6 µM; in that of `Oc1ccc(-c2nc(-c3ccc(O)c(O)c3)cs2)cc1`, 0.167 µM.

Turning to `Cc1cc(NC(=O)CSc2nc3ccccc3c(=O)n2C2CCCC2)no1`, the CC50 was 0.469 µM.

For `COc1ccc(OC)c(C2CC(=O)c3c([nH]c(C(=O)OC(C)C)c3C)C2)c1` (stereo not given), the half-maximal cytotoxic concentration (CC50) was 1.08 µM. For `CCn1c(-c2ccc(N(C)C)cc2)nc2ccccc21`, the CC50 was 5.93 µM (inactive). In the case of `COc1ccccc1NC(=O)Cc1nn(C)c(=O)c2ccccc12` it was 3.35 µM; in that of `O=C(Nc1nccs1)c1ccc(S(=O)(=O)NCC2CCCCC2)cc1`, > 40 µM (inactive); in that of `Cc1cccc(Cn2c(NCC(C)O)nc3c2c(=O)n(C)c(=O)n3C)c1` (stereo not given), 8.24 µM (inactive). On to `c1ccc(-c2nc(N3CCCCCC3)c3ccccc3n2)nc1`, for which the CC50 was 10.1 µM (inactive).

On to `CCCCNc1ncnc2c1cnn2-c1ccccc1`, for which the CC50 was 2.39 µM.

As for `Cc1sc(NC(=O)c2ccco2)c(C(c2cccnc2)N2CCN(c3ccc(F)cc3)CC2)c1C` (stereo not given), the CC50 was > 40 µM (inactive). In the case of `COC(=O)c1ccc(Cl)c(NS(=O)(=O)c2ccc3c(c2)OCCO3)c1` it was 4.81 µM; in that of `COc1cccc(OC)c1-c1nn2c(-c3cc(-c4ccccc4)n[nH]3)nnc2s1`, 8.6 µM (inactive); in that of `O=C(c1ccc(F)cc1)C(CN1CCOCC1)c1ccccc1` (stereo not given), 5.53 µM (inactive). For `Oc1c(CN2CCCCC2)cc(Br)c2cccnc12`, the CC50 is 3.79 µM.

These data come from PubChem BioAssay AID464 (The Scripps Research Institute Molecular Screening Center, 2006).
